Measured values: publication PMC4160570, “Effects of proarrhythmic drugs on relaxation time and beating pattern in rat engineered heart tissue” (Basic Research in Cardiology, 2014)
Like-named read-outs stand apart in the source and are kept apart here.

Tests used:
rat = details: cited from earlier work
mouse = details: in vivo; cited from earlier work
[1] = test system: rat engineered heart tissue (EHT); test: Video-optical analysis of contractile parameters of spontaneously beating rat EHTs (50 nM epinephrine); details: for significant T2 prolongation (p<0.05 and at least 15 % vs baseline): 1-, 10-, 100-fold FTPC, 50 nM epinephrine, n = 4–8; for ability to mimic the effect of JTV519 on 4AP-induced changes: flecainide 0.5 µM; for irregular beating as the primary effect: sinusoidal fluctuation of twitch amplitudes, time dependent; for effect on 4AP-induced beating irregularity and aftercontractions / T2 values: 4AP 10 mM; for effect on 4AP-induced beating irregularity and aftercontractions: SEA0400 2 µM or JTV519 2 µM; for relaxation remaining prolonged with 4AP in presence of inhibitor: high concentration of 4AP plus SEA0400 or JTV519
[2] = 4AP 10 mM in absence and presence of the blocker, SEA0400 2 µM, JTV519 2 µM

## O=C1NC(=O)C(c2ccccc2)(c2ccccc2)N1 [Phenytoin]
rat; in vivo
  LD50: 1.635 mg∙kg^-1 (rat, p. o.) 100 mg∙kg^-1 (mouse, i. p.)
mouse
  LD50: 1.635 mg∙kg^-1 (rat, p. o.) 100 mg∙kg^-1 (mouse, i. p.)
[1]
  EHT-effective concentrations relative to hERG IC50: relaxation slowing occurred at concentrations below hERG IC50
  concentration at which T2 is prolonged: 1 × FTPC
  significant T2 prolongation (p<0.05 and at least 15 % vs baseline): Significant T2 prolongations

## C/C=C(/C)C(=O)O[C@H]1C(C)=C2[C@H]([C@@H]1OC(=O)CCCCCCC)[C@@](C)(OC(C)=O)C[C@H](OC(=O)CCC)[C@@]1(O)[C@H]2OC(=O)[C@@]1(C)O [Thapsigargin]
[1]; 3–30 nM
  effect on time of relaxation, alone: did not affect time of relaxation as such
[1]; [2]
  effect on the T2-prolonging effect of 4AP: increased the T2-prolonging effect of 4AP

## COc1ccc(CCN2CCC(Nc3nc4ccccc4n3Cc3ccc(F)cc3)CC2)cc1 [Astemizole]
mouse
  LD50: 35 mg∙kg^-1 (mouse, i. v.)
[1]; 1–100× FTPC
  effect on force (group 3): decrease in force

## CCCCNc1ccc(C(=O)OCCN(C)C)cc1 [Tetracaine]
[1]; [2]
  effect on the T2-prolonging effect of 4AP: increased the T2-prolonging effect of 4AP
[1]; data not shown
  ability to mimic the effect of JTV519 on 4AP-induced changes: did not mimic the effect of JTV519

## CC[C@H](CO)Nc1nc(NCc2ccccc2)n2ncc(C(C)C)c2n1 [GP 0210]
[1]; NCEs tested at 0.1, 1, 10 µM
  Effect on EHT contractility: -

## COc1cc(N)c(Cl)cc1C(=O)NC1CCN(CCCOc2ccc(F)cc2)CC1OC (stereo not drawn) [Cisapride]
rat; in vivo
  LD50: 4.166 mg∙kg^-1 (rat, p. o.)
[1]
  significant T2 prolongation (p<0.05 and at least 15 % vs baseline): Significant T2 prolongations

## CSc1ccc2c(c1)N(CCC1CCCCN1C)c1ccccc1S2 (stereo not drawn) [Thioridazine]
[1]
  irregular beating as the primary effect: induced irregular beating

## CC(C)(C)c1ccc(C(O)CCCN2CCC(C(O)(c3ccccc3)c3ccccc3)CC2)cc1 (stereo not drawn) [Terfenadine]
[1]; 1–100× FTPC
  effect on T2 (group 3): shortening of T2

## CC(C)(C)c1ccc(C(=O)CCCN2CCC(OC(c3ccccc3)c3ccccc3)CC2)cc1 [Ebastine]
[1]
  significant T2 prolongation (p<0.05 and at least 15 % vs baseline): Significant T2 prolongations

## C[N+](C)(C)CCOC(N)=O [carbachol]
[1]; carbachol 1 µM added to epinephrine 50 nM
  effect on frequency of beating in the burst: reversed epinephrine effect and induced partial stop
[1]; carbachol 1 µM plus epinephrine
  EHTs that stopped spontaneous beating: 3/7

## COc1c(N2C[C@@H]3CCCN[C@@H]3C2)c(F)cc2c(=O)c(C(=O)O)cn(C3CC3)c12 [Moxifloxacin]
[1]
  T2-effective concentrations: 100 fold FTPC
  significant T2 prolongation (p<0.05 and at least 15 % vs baseline): Significant T2 prolongations

## CC(C)(C(=O)O)c1ccc(C(O)CCCN2CCC(C(O)(c3ccccc3)c3ccccc3)CC2)cc1 (stereo not drawn) [Fexofenadine]
[1]
  significant T2 prolongation (p<0.05 and at least 15 % vs baseline): Significant T2 prolongations

## CN(CCOc1ccc(NS(C)(=O)=O)cc1)CCc1ccc(NS(C)(=O)=O)cc1 [Dofetilide]
[1]
  effect on T2 at 100-fold IC50 concentrations: lack of effect
[1]; 1–100× FTPC
  effect on the parameters studied (group 4): without any effect on the parameters studied

## OC(c1cc(C(F)(F)F)nc2c(C(F)(F)F)cccc12)C1CCCCN1 (stereo not drawn) [Mefloquine]
rat; in vivo
  LD50: 880 mg∙kg^-1 (rat, p. o.)
[1]; 1–100× FTPC
  effect on contraction time T1 (group 3): prolongation of contraction time T1

## CN(C)CCOC(c1ccccc1)c1ccccc1 [Diphenhydramine]
[1]; 1–100× FTPC
  effect on contraction time T1 (group 3): prolongation of contraction time T1

## CNCCCN1c2ccccc2CCc2ccccc21 [Desipramine]
mouse
  LD50: 740 mg∙kg^-1 (mouse, p. o.)
[1]
  significant T2 prolongation (p<0.05 and at least 15 % vs baseline): Significant T2 prolongations
  irregular beating as the primary effect: induced irregular beating

## CC/C(=C(\c1ccccc1)c1ccc(OCCN(C)C)cc1)c1ccccc1 [Tamoxifen]
rat; p. o.
  LD50: 4.100 mg∙kg^-1 (rat, p. o.)

## O=c1[nH]c2ccccc2n1C1CCN(CCCC(c2ccc(F)cc2)c2ccc(F)cc2)CC1 [Pimozide]
mouse
  LD50: 288 mg∙kg^-1 (mouse, p. o.)

## CCCCCCCN(CC)CCCC(O)c1ccc(NS(C)(=O)=O)cc1 (stereo not drawn) [Ibutilide]
[1]
  effect on T2 at 100-fold IC50 concentrations: lack of effect
[1]; 1–100× FTPC
  effect on the parameters studied (group 4): without any effect on the parameters studied

## O=C1NCCN1CCN1CCC(c2cn(-c3ccc(F)cc3)c3ccc(Cl)cc23)CC1 [Sertindole]
mouse
  LD50: 420 mg∙kg^-1 (mouse, i. p.)
[1]; 1–100× FTPC
  effect on contraction time T1 (group 3): prolongation of contraction time T1

## CC(C)COCC(CN(Cc1ccccc1)c1ccccc1)N1CCCC1 (stereo not drawn) [Bepridil]
[1]
  published IKs IC50 relative to threshold for group 1 or 2 effects: at or below the threshold for group 1 or 2 effects
  significant T2 prolongation (p<0.05 and at least 15 % vs baseline): Significant T2 prolongations
  irregular beating as the primary effect: induced irregular beating

## Cc1nc2n(c(=O)c1CCN1CCC(c3noc4cc(F)ccc34)CC1)CCCC2 [Risperidone]
rat; in vivo
  LD50: 56,6 mg∙kg^-1 (rat, p. o.)

## CC(C)NCC(O)c1ccc(NS(C)(=O)=O)cc1 (racemic) [D,L-sotalol]
mouse
  LD50: 790 mg∙kg^-1 (mouse, i. p.)
[1]
  T2-effective concentrations: 100 fold FTPC
  published IKs IC50 relative to threshold for group 1 or 2 effects: at or below the threshold for group 1 or 2 effects
  significant T2 prolongation (p<0.05 and at least 15 % vs baseline): Significant T2 prolongations

## NC1=N[C@H](O)[C@H]2[C@H]3O[C@]4(O)O[C@@H]([C@@H](O)[C@@]2(N1)[C@@H]4O)[C@]3(O)CO [Tetrodotoxin]
[1]
  effect of pure INa blockers on T1: did not prolong T1
  effect on the T2-prolonging effect of 4AP: increased the T2-prolonging effect of 4AP

## CC[C@H]1OC(=O)[C@H](C)[C@@H](O[C@H]2C[C@@](C)(OC)[C@@H](O)[C@H](C)O2)[C@H](C)[C@@H](O[C@@H]2O[C@H](C)C[C@H](N(C)C)[C@H]2O)[C@](C)(OC)C[C@@H](C)C(=O)[C@H](C)[C@@H](O)[C@]1(C)O [Clarithromycin]
rat; in vivo
  LD50: 1.270 mg∙kg^-1 (rat, p. o.) 850 mg∙kg^-1 (mouse, i. p.)
mouse
  LD50: 1.270 mg∙kg^-1 (rat, p. o.) 850 mg∙kg^-1 (mouse, i. p.)
[1]
  published IC50 values for hERG and Ito relative to threshold for T2 prolongation or irregularity: at or below the threshold for T2 prolongation or irregularity
  significant T2 prolongation (p<0.05 and at least 15 % vs baseline): Significant T2 prolongations

## CN(C)CCCN1c2ccccc2CCc2ccccc21 [Imipramine]
[1]
  irregular beating as the primary effect: induced irregular beating

## CCN(CC)CCCN(c1ccccc1)C1Cc2ccccc2C1 [Aprindine]
[1]
  significant T2 prolongation (p<0.05 and at least 15 % vs baseline): Significant T2 prolongations

## O=C(NCC1CCCCN1)c1cc(OCC(F)(F)F)ccc1OCC(F)(F)F (stereo not drawn) [Flecainide]
rat; in vivo
  LD50: 1.346 mg∙kg^-1 (rat, p. o.)
[1]
  significant T2 prolongation (p<0.05 and at least 15 % vs baseline): Significant T2 prolongations
[1]; data not shown
  ability to mimic the effect of JTV519 on 4AP-induced changes: did not mimic the effect of JTV519

## CCN(CC)CC(=O)Nc1c(C)cccc1C [lidocaine]
[1]; data not shown
  effect of pure INa blockers on T1: did not prolong T1

## O=C(CCCN1CCC(O)(c2ccc(Cl)cc2)CC1)c1ccc(F)cc1 [Haloperidol]
rat; in vivo
  LD50: 128 mg∙kg^-1 (rat, p. o.) 30 mg∙kg^-1 (mouse, i. p.)
mouse
  LD50: 128 mg∙kg^-1 (rat, p. o.) 30 mg∙kg^-1 (mouse, i. p.)
[1]; 1–100× FTPC
  effect on contraction time T1 (group 3): prolongation of contraction time T1

## CC(C)N(CCC(C(N)=O)(c1ccccc1)c1ccccn1)C(C)C (stereo not drawn) [Disopyramide]
rat; in vivo
  LD50: 333 mg∙kg^-1 (rat, p. o.)
[1]
  T2-effective concentrations: 5 fold FTPC
  significant T2 prolongation (p<0.05 and at least 15 % vs baseline): Significant T2 prolongations

## O=c1[nH]c2ccccc2n1CCCN1CCC(n2c(=O)[nH]c3cc(Cl)ccc32)CC1 [Domperidone]
[1]
  significant T2 prolongation (p<0.05 and at least 15 % vs baseline): Significant T2 prolongations

## COc1ccc2c(c1)CN(C(=O)CCN1CCC(Cc3ccccc3)CC1)CCS2 [JTV519]
[1]; [2]
  effect on the T2-prolonging effect of 4AP: reduced the effect of 4AP
[1]
  effect on 4AP-induced beating irregularity and aftercontractions: completely abolished beating irregularity and aftercontractions
  relaxation remaining prolonged with 4AP in presence of inhibitor: ~ 200%
[1]; SEA0400 2 µM, JTV519 2 µM
  T2 values: 80 ms

## CCOc1ccc(Oc2ccc(OCc3cc(F)ccc3F)cc2)c(N)c1 [SEA0400]
[1]; [2]
  effect on the T2-prolonging effect of 4AP: reduced the effect of 4AP
[1]
  effect on 4AP-induced beating irregularity and aftercontractions: completely abolished beating irregularity and aftercontractions
  relaxation remaining prolonged with 4AP in presence of inhibitor: ~ 200%
[1]; SEA0400 2 µM, JTV519 2 µM
  T2 values: 78 ms

## Cn1c(=O)c2c(ncn2C)n(C)c1=O [caffeine]
[1]; high concentration of caffeine (5 mM)
  effect on beating rate and twitch: reduced beating rate and induced a large and wide twitch

## C[C@@H]1CN(c2c(F)c(N)c3c(=O)c(C(=O)O)cn(C4CC4)c3c2F)C[C@H](C)N1 [Sparfloxacin]
[1]
  significant T2 prolongation (p<0.05 and at least 15 % vs baseline): Significant T2 prolongations
[1]; original recording, Supplemental Fig. 4
  changes associated with T2 prolongation: marked reduction of beating rate and an increase in twitch force

## CCN(CC)CCNC(=O)c1ccc(N)cc1 [Procainamide]
[1]
  significant T2 prolongation (p<0.05 and at least 15 % vs baseline): Significant T2 prolongations
